Reference: BigSolDB 2.1

O=C1CCCCCCCCCCC1
solubility (mole fraction)
Settings	278.15 K	283.15 K	288.15 K	293.15 K	298.15 K	303.15 K	308.15 K	313.15 K
in 1,2-dichloroethane	0.366	0.394	0.441	0.459	0.511	0.549	0.604	0.657
in acetone	0.142	0.184	0.229	0.285	0.362	0.432	0.517	0.618
in acetonitrile	0.0485	0.0711	0.104	0.16	0.225	0.322	0.466	0.637
in cyclohexane	–	0.21	0.263	0.308	0.366	0.441	0.515	0.598
in ethanol	0.0472	0.0701	0.0949	0.127	0.183	0.243	0.348	0.461
in ethyl acetate	0.195	0.235	0.286	0.345	0.407	0.477	0.553	0.615
in isobutanol	0.0949	0.121	0.158	0.202	0.261	0.331	0.424	0.54
in isopropanol	0.0967	0.122	0.155	0.2	0.262	0.341	0.445	0.55
in methanol	0.0155	0.0267	0.04	0.0679	0.108	0.166	0.272	0.399
in n-butanol	0.0988	0.125	0.164	0.204	0.258	0.327	0.415	0.527
in n-propanol	0.118	0.144	0.182	0.228	0.293	0.37	0.467	0.567
in toluene	0.33	0.378	0.41	0.454	0.501	0.553	0.607	0.675
